Biological target: PERK recombinant enzyme (cytoplasmic domain corresponding to residues 540-1115) (Homo sapiens (Human), UniProt Q9NZJ5)
Test: PERK enzyme assay, Method 1: ADP-Glo Kinase Assay (quantification of ADP formed)
Format: biochemical
Conditions: 52 microM ATP, 8 nM PERK, 300 microM eIF2alpha peptide substrate, 60 minutes at room temperature
Method: The biochemical activity of compounds was determined by incubation with PERK recombinant enzyme (cytoplasmic domain corresponding to residues 540-1115) and elF2alpha peptide substrate (Aminoacid sequence: LLSELSRRRIRSINK—SEQ ID Nr: 1; purchased from American Peptide Company, product #341923). This was followed by:
Method 1: Quantification of the ADP Tormed from the Kinase Reaction by ADP-Glo™ Kinase Assay (Promega Cat. 9102). Utra Pure ATP was Included into ADP-Glo™ Kinase Assay kit.
Compounds were 3-fold serially diluted in order to obtain from 3.333 to 0.000169 microM final concentration, then incubated for 60 minutes at room temperature in the presence of ATP, substrate and enzyme in a final volume of 15 microL of kinase buffer in 384-well plates (Perkin Elmer cat. #6007290).
The final concentration of the different reagents is 52 microM ATP, 8 nM PERK, 300 microM substrate, 50 mM Hepes pH 7.5, 3 mM MgCl2, 1 mM DTT, 3 microM Na3VO4, 0.2 mg/ml BSA, 1% DMSO.
After 60 minutes, an equal volume (15 microL) of ADP-Glo™ Reagent was added to each well to terminate the kinase reaction and deplete the remaining ATP. After 40 minutes, 30 microL of Kinase Detection Reagent is added, which simultaneously converts ADP to ATP and allows the newly synthesized ATP to be measured using a coupled luciferase/luciferin reaction. After further 40 minutes luminescence was read by ViewLux Instrument (Perkin Elmer). The data are analyzed by GraphPad Prism software which provides sigmoidal fittings of the curves for IC50 determination using a 4 parameter logistic equation: y=bottom+(top−bottom)/(1+10^((log IC50−x)*slope))
where x is the logarithm of the inhibitor concentration, y is the response; y starts at bottom and goes to top with a sigmoid shape.

PERK recombinant enzyme (cytoplasmic domain corresponding to residues 540-1115), sequence (Q9NZJ5 540-1115): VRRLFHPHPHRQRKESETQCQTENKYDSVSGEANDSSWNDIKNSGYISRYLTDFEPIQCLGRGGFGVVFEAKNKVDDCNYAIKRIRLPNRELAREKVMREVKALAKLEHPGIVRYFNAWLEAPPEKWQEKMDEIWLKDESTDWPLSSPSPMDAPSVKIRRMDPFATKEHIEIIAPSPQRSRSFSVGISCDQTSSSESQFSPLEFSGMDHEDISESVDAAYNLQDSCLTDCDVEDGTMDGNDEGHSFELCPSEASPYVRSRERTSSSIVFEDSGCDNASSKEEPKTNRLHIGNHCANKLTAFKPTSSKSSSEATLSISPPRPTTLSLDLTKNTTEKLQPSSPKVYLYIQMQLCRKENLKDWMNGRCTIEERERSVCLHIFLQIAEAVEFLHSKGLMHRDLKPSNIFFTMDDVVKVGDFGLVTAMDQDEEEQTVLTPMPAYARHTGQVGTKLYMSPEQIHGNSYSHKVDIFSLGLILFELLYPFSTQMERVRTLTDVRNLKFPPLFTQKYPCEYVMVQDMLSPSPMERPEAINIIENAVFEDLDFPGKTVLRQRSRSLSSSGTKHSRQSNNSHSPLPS

| Structure (SMILES) | IC50 | pIC50 |
| --- | --- | --- |
| COc1ccc(S(=O)(=O)Nc2cccc(-c3cn(C4CCN(C)CC4)c4ncnc(N)c34)c2F)cc1C [cmpd 38, N-{3-[4-Amino-7-(1-methyl-piperidin-4-yl)-7H-pyrrolo[2,3-d]pyrimidin-5-yl]-2-fluoro-phenyl}-4-methoxy-3-methyl-benzenesulfonamide] |  | AA (7.8 ≤ pIC50) |
| COc1ccc(S(=O)(=O)Nc2cccc(-c3cn(C4CCN(C5CC5)CC4)c4ncnc(N)c34)c2F)cc1C [cmpd 39, N-{3-[4-Amino-7-(1-cyclopropyl-piperidin-4-yl)-7H-pyrrolo[2,3-d]pyrimidin-5-yl]-2-fluoro-phenyl}-4-methoxy-3-methyl-benzenesulfonamide] | 15.8 to 50.1 nM |  |
| COc1ccc(S(=O)(=O)Nc2cccc(-c3cn(C4CCN(C(C)C)CC4)c4ncnc(N)c34)c2F)cc1C [cmpd 40, N-{3-[4-Amino-7-(1-isopropyl-piperidin-4-yl)-7H-pyrrolo[2,3-d]pyrimidin-5-yl]-2-fluoro-phenyl}-4-methoxy-3-methyl-benzenesulfonamide] | 15.8 to 50.1 nM |  |
| CCN1CCC(n2cc(-c3cccc(NS(=O)(=O)c4ccc(OC)c(C)c4)c3F)c3c(N)ncnc32)CC1 [cmpd 41, N-{3-[4-Amino-7-(1-ethyl-piperidin-4-yl)-7H-pyrrolo[2,3-d]pyrimidin-5-yl]-2-fluoro-phenyl}-4-methoxy-3-methyl-benzenesulfonamide] | 15.8 to 50.1 nM |  |
| COc1cc(F)c(S(=O)(=O)Nc2cccc(-c3cn(C)c4ncnc(N)c34)c2F)cc1C [cmpd 44, N-[3-(4-Amino-7-methyl-7H-pyrrolo[2,3-d]pyrimidin-5-yl)-2-fluoro-phenyl]-2-fluoro-4-methoxy-5-methyl-benzenesulfonamide] |  | AA (7.8 ≤ pIC50) |
| Cn1cc(-c2cccc(NS(=O)(=O)c3cc(F)c(Br)cc3F)c2F)c2c(N)ncnc21 [cmpd 46, N-[3-(4-Amino-7-methyl-7H-pyrrolo[2,3-d]pyrimidin-5-yl)-2-fluoro-phenyl]-4-bromo-2,5-difluoro-benzenesulfonamide] |  | AA (7.8 ≤ pIC50) |
| Cn1cc(-c2cccc(NS(=O)(=O)c3ccc(Br)s3)c2F)c2c(N)ncnc21 [cmpd 48, 5-Bromo-thiophene-2-sulfonic acid [3-(4-amino-7-methyl-7H-pyrrolo[2,3-d]pyrimidin-5-yl)-2-fluoro-phenyl]-amide] | 15.8 to 50.1 nM |  |
| Cn1cc(-c2cccc(NS(=O)(=O)c3ccc(OC(F)(F)F)c(Cl)c3)c2F)c2c(N)ncnc21 [cmpd 50, N-[3-(4-Amino-7-methyl-7H-pyrrolo[2,3-d]pyrimidin-5-yl)-2-fluoro-phenyl]-3-chloro-4-trifluoromethoxy-benzenesulfonamide] |  | C (pIC50 < 6.8) |
| Cn1cc(-c2cccc(NS(=O)(=O)c3ccc(Br)c(C(F)(F)F)c3)c2F)c2c(N)ncnc21 [cmpd 51, N-[3-(4-Amino-7-methyl-7H-pyrrolo[2,3-d]pyrimidin-5-yl)-2-fluoro-phenyl]-4-bromo-3-trifluoromethyl-benzenesulfonamide] | 15.8 to 50.1 nM |  |
| Cc1cc(S(=O)(=O)Nc2cccc(-c3cn(C)c4ncnc(N)c34)c2F)ccc1Br [cmpd 52, N-[3-(4-Amino-7-methyl-7H-pyrrolo[2,3-d]pyrimidin-5-yl)-2-fluoro-phenyl]-4-bromo-3-methyl-benzenesulfonamide] |  | AA (7.8 ≤ pIC50) |
| COc1cc(F)c(S(=O)(=O)Nc2cccc(-c3csc4ccnc(N)c34)c2F)cc1Cl [cmpd 59, N-[3-(4-Amino-thieno[3,2-c]pyridin-3-yl)-2-fluoro-phenyl]-5-chloro-2-fluoro-4-methoxy-benzenesulfonamide] | 50.1 to 158 nM |  |
| Cn1cc(-c2cccc(NS(=O)(=O)c3ccc(O)c(Cl)c3)c2F)c2c(N)ncnc21 [cmpd 67, N-[3-(4-Amino-7-methyl-7H-pyrrolo[2,3-d]pyrimidin-5-yl)-2-fluoro-phenyl]-3-chloro-4-hydroxy-benzenesulfonamide] |  | C (pIC50 < 6.8) |
| COc1cc(F)c(S(=O)(=O)Nc2cccc(-c3cn(C(C)C)c4ncnc(N)c34)c2F)cc1Cl [cmpd 74, N-[3-(4-Amino-7-isopropyl-7H-pyrrolo[2,3-d]pyrimidin-5-yl)-2-fluoro-phenyl]-5-chloro-2-fluoro-4-methoxy-benzenesulfonamide] | 50.1 to 158 nM |  |
| CCn1cc(-c2cccc(NS(=O)(=O)c3cc(Cl)c(OC)cc3F)c2F)c2c(N)ncnc21 [cmpd 75, N-[3-(4-Amino-7-ethyl-7H-pyrrolo[2,3-d]pyrimidin-5-yl)-2-fluoro-phenyl]-5-chloro-2-fluoro-4-methoxy-benzenesulfonamide] | 15.8 to 50.1 nM |  |
| COc1ccc(S(=O)(=O)Nc2cccc(-c3cn(C)c4ncnc(N)c34)c2F)cc1C#N [cmpd 86, N-[3-(4-Amino-7-methyl-7H-pyrrolo[2,3-d]pyrimidin-5-yl)-2-fluoro-phenyl]-3-cyano-4-methoxy-benzenesulfonamide] | 15.8 to 50.1 nM |  |
| COc1ccc(S(=O)(=O)Nc2cccc(-c3cn(C)c4ncnc(N)c34)c2F)cc1Br [cmpd 87, N-[3-(4-Amino-7-methyl-7H-pyrrolo[2,3-d]pyrimidin-5-yl)-2-fluoro-phenyl]-3-bromo-4-methoxy-benzenesulfonamide] |  | AA (7.8 ≤ pIC50) |

Continued, values first:

| IC50 | pIC50 | Structure (SMILES) |
| --- | --- | --- |
| 15.8 to 50.1 nM |  | COc1ccc(S(=O)(=O)Nc2cccc(-c3cn(C4CCOCC4)c4ncnc(N)c34)c2F)cc1C [cmpd 36, N-{3-[4-Amino-7-(tetrahydro-pyran-4-yl)-7H-pyrrolo[2,3-d]pyrimidin-5-yl]-2-fluoro-phenyl}-4-methoxy-3-methyl-benzenesulfonamide] |
| 15.8 to 50.1 nM |  | COc1ccc(S(=O)(=O)Nc2cccc(-c3cn(C4CCOCC4)c4ncnc(N)c34)c2F)cc1Cl [cmpd 37, N-{3-[4-Amino-7-(tetrahydro-pyran-4-yl)-7H-pyrrolo[2,3-d]pyrimidin-5-yl]-2-fluoro-phenyl}-3-chloro-4-methoxy-benzenesulfonamide] |
| 15.8 to 50.1 nM |  | Cn1cc(-c2cccc(NS(=O)(=O)c3ccc(Cl)s3)c2F)c2c(N)ncnc21 [cmpd 47, 5-Chloro-thiophene-2-sulfonic acid [3-(4-amino-7-methyl-7H-pyrrolo[2,3-d]pyrimidin-5-yl)-2-fluoro-phenyl]-amide] |
| 50.1 to 158 nM |  | Cn1cc(-c2cccc(NS(=O)(=O)c3cc(C(F)(F)F)cc(C(F)(F)F)c3)c2F)c2c(N)ncnc21 [cmpd 49, N-[3-(4-Amino-7-methyl-7H-pyrrolo[2,3-d]pyrimidin-5-yl)-2-fluoro-phenyl]-3,5-bis-trifluoromethyl-benzenesulfonamide] |
| 15.8 to 50.1 nM |  | COc1ccc(S(=O)(=O)Nc2cccc(-c3cn(C4CCNCC4)c4ncnc(N)c34)c2F)cc1C [cmpd 64, N-[3-(4-Amino-7-piperidin-4-yl-7H-pyrrolo[2,3-d]pyrimidin-5-yl)-2-fluoro-phenyl]-4-methoxy-3-methyl-benzenesulfonamide] |
| 50.1 to 158 nM |  | COc1cc(F)c(S(=O)(=O)Nc2cccc(-c3cn(C4CCOCC4)c4ncnc(N)c34)c2F)cc1Cl [cmpd 76, N-{3-[4-Amino-7-(tetrahydro-pyran-4-yl)-7H-pyrrolo[2,3-d]pyrimidin-5-yl]-2-fluoro-phenyl}-5-chloro-2-fluoro-4-methoxy-benzenesulfonamide] |
| 50.1 to 158 nM |  | COc1ccc(S(=O)(=O)Nc2cccc(-c3cn(C)c4ncnc(N)c34)c2F)cn1 [cmpd 81, 6-Methoxy-pyridine-3-sulfonic acid [3-(4-amino-7-methyl-7H-pyrrolo[2,3-d]pyrimidin-5-yl)-2-fluoro-phenyl]-amide] |
| 15.8 to 50.1 nM |  | Cn1cc(-c2cccc(NS(=O)(=O)c3ccc(Cl)cc3F)c2F)c2c(N)ncnc21 [cmpd 85, N-[3-(4-Amino-7-methyl-7H-pyrrolo[2,3-d]pyrimidin-5-yl)-2-fluoro-phenyl]-4-chloro-2-fluoro-benzenesulfonamide] |
